The source of these data is patent US8975417B2, “Pyrazolopyrrolidine derivatives and their use in the treatment of disease” (Novartis AG, priority 2013, dated 2015).

SMILES strings stand for the structures. Where only a bound is given, the exact number is not on record here.

One experiment addresses His-Brd4(44-477) (Homo sapiens (Human), UniProt O60885). Description: TR-FRET in-vitro binding assay for BRD4. The note with it: biochemical. In outline:
(§1)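 Bromodomain protein (45 nM in its addition solution) and tetra-acetylated histone H4 peptide (AcK5/8/12/16; 60 nM in its addition solution) were incubated with compounds for 35 min at 30 °C in 50 mM HEPES pH 7.5, 50 mM NaCl, 0.005% Tween20, 0.1% BSA. Eu-anti-His6 plus streptavidin-allophycocyanin detection followed, with TR-FRET read-out.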
A general note: TR-FRET usually uses a lanthanide donor and a delayed reading to cut background.

For a further experiment, the target named is His-Brd2(60-472) (Homo sapiens (Human), UniProt P25440). Kind of experiment: TR-FRET in-vitro binding assay for BRD2. To be noted: biochemical. In outline: as §1
His-Brd2(60-472), sequence (P25440 60-472): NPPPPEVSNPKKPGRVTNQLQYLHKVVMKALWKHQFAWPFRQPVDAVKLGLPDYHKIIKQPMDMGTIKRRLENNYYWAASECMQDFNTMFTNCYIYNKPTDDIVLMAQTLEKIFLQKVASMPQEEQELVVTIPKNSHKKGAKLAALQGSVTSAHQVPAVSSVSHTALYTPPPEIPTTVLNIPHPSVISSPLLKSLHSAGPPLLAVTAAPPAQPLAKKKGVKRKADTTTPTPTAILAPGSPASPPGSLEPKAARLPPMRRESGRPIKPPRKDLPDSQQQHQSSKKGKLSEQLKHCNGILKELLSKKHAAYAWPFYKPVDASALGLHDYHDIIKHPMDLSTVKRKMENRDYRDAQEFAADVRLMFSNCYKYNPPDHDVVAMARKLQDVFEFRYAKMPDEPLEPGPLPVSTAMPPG
A further experiment deals with His-Brd3(20-477) (Homo sapiens (Human), UniProt Q15059). Kind of experiment: TR-FRET in-vitro binding assay for BRD3. The note with it: biochemical. In outline: as §1
His-Brd3(20-477), sequence (Q15059 20-477): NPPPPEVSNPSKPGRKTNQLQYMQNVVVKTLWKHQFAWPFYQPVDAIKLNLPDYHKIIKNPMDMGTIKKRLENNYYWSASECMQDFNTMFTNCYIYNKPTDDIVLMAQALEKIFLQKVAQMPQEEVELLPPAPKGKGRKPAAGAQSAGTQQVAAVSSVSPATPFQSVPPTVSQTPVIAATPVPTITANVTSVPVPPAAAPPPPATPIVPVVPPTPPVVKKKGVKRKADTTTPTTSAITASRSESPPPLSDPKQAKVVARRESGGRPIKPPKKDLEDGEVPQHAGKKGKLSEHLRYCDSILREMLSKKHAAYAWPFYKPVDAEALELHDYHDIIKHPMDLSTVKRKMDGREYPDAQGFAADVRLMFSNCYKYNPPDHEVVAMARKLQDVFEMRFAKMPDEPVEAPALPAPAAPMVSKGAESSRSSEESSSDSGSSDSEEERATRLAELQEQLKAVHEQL
Experiment [1] deals with His-CREBBP (1081-1197) bromodomain (Homo sapiens (Human), UniProt Q92793). Kind of experiment: AlphaScreen in-vitro binding assay for CREBBP. The note with it: biochemical. In outline: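 Ni-chelate acceptor and streptavidin donor beads (45 µg/mL each, in 50 mM HEPES pH 7.5, 150 mM NaCl, 0.02% BSA) were then added for 60 min at room temperature. IC50 came from 8-point non-linear regression.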
His-CREBBP (1081-1197) bromodomain, sequence (Q92793 1081-1197): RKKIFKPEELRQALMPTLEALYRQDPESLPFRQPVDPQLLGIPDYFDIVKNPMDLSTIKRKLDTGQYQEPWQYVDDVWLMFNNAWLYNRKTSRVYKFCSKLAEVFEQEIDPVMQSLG

For a further experiment, the system named is MV-4-11 cells. Kind of experiment: Cell growth inhibition assay (CellTiter-Glo), MV-4-11. Format: cell-based. The note with it: Homo sapiens, MV4-11, read-out: MV-4-11 TGI. As for the experimental part:
(§2) Cell Growth Inhibition Assay
(§3) The human leukemia cell lines MV-4-11, THP-1 and K-562 were employed to characterize the effect of BET inhibitors on cellular proliferation and viability. Cells were obtained from the American Type Culture Collection (ATCC) and cultured at 37° C. in a humidified 5% CO2 incubator in the following media: MV-4-11: DMEM high glucose (Animed #1-26F01-I), 10% FCS (Animed #2-01F26-I), 4 mM L-Glutamine (Animed #5-10K50), 1 mM Sodium Pyruvate (Animed # G03625P), 1× Penicillin-Streptomycin (Animed # F12478P); K-562: Iscove's MEM (Animed #1-28F16-I), 10% FCS (Animed #2-01F26-I), 4 mM L-Glutamine (Animed #5-10K50), 1× Penicillin-Streptomycin (Animed # F12478P); THP-1: RPMI-1640 (Animed #1-41F01-I), 10% FCS (Animed #2-01F26-I), 2 mM L-Glutamine (Animed #5-10K50), 10 mM HEPES (Animed #5-31F100), 1 mM Sodium Pyruvate (Animed # G03625P), 1× Penicillin-Streptomycin (Animed # F12478P). The AML lines MV-4-11 and THP-1 are very sensitive to BET inhibitors and show massive cell death upon BET inhibition (Zuber et al., Nature, 478 (2011), 524-8). Compound-mediated suppression of cell proliferation/viability was assessed by quantification of cellular ATP levels using the CellTiter-Glo (CTG) reagent (Promega). Briefly, cells were seeded in 20 μl fresh medium into 384-well plates, followed by addition of 5 μL medium containing compound dilutions at 5-fold their final intended concentration. Dose-response effects were assessed by 3-fold serial dilutions of the test compound, starting at 10 μM. Following incubation of the cells for days at 37° C. and 5% CO2, the effect of inhibitors on cell viability was quantified following addition of 20 μl CTG and luminescence quantification (integration time: 100 ms) as per vendor manual, using a correspondingly equipped Tecan M200 multi-mode platereader (TECAN, Switzerland). For data analysis, the assay background value determined in wells containing medium, but no cells, was subtracted from all data points. To enable differentiation of cytotoxic from cytostatic compounds, the number of viable cells is assessed relative to that observed at the time of compound addition using a separate cell plate (day 0). The effect of a particular test compound concentration on cell proliferation/viability is expressed as percentage of the background- and day 0-corrected luminescence reading obtained for cells treated with vehicle only (DMSO, 0.1% final concentration), which is set as 100%, whereas that luminescence reading for wells containing medium is set as −100%. Compound concentrations leading to half-maximal (IC50) and total growth inhibition (TGI) were determined using standard four parameter curve fitting.
For orientation: Cellular ATP, detected with luciferase, serves as a proxy for viable cell number.

Another experiment deals with THP-1 cells. Kind of experiment: Cell growth inhibition assay (CellTiter-Glo), THP-1. Format: cell-based. To be noted: Homo sapiens, read-out: THP-1 TGI. Here is the method: as §2, §3
A further experiment has as its system K-562 cells. Kind of experiment: Cell growth inhibition assay (CellTiter-Glo), K-562. Format: cell-based, human. To be noted: Homo sapiens, K562, read-out: K-562 TGI. Here is the method:
as §2, §3

For orientation: IC50 means the concentration that gives 50% inhibition. Read a high IC50 as a need for much substance. `Cc1[nH]nc2c1C(c1ccc(Cl)cc1)N(c1cc(C)c(=O)n(C)c1)C2=O` (centres unmarked) [Example 27, 4-(4-chlorophenyl)-5-(1,5-dimethyl-6-oxo-1,6-dihydropyridin-3-yl)-3-methyl-4,5-dihydropyrrolo[3,4-c]pyrazol-6(2H)-one]: the IC50 came to 95 nM at His-Brd4(44-477), 310 nM on His-Brd2(60-472), 180 nM at His-Brd3(20-477) and 3800 nM in experiment [1]. Moreover, the IC (total growth inhibition) is 0.158 µM in the experiment on MV-4-11 cells, 0.363 µM with THP-1 cells and greater than 10 µM in the experiment on K-562 cells.

As to `Cn1cc(N2C(=O)c3c(cnn3C3CC3)C2c2ccc(Cl)cc2)cc(Cl)c1=O` (centres unmarked) [Example 35, 5-(5-chloro-1-methyl-6-oxo-1,6-dihydropyridin-3-yl)-4-(4-chlorophenyl)-1-cyclopropyl-4,5-dihydropyrrolo[3,4-c]pyrazol-6(1H)-one], the IC50 amounted to 150 nM at His-Brd4(44-477), 140 nM at His-Brd2(60-472), 160 nM on His-Brd3(20-477) and 7400 nM in experiment [1]. Moreover, the IC (total growth inhibition) with MV-4-11 cells is 0.23 µM; in the experiment on THP-1 cells it was 0.427 µM; in the experiment on K-562 cells it was greater than 10 µM.

Turning to `Cc1cc(N2C(=O)c3c(cnn3C(C)C)C2c2ccc(Cl)cc2)cn(C)c1=O` (centres unmarked) [Example 36, 4-(4-chlorophenyl)-5-(1,5-dimethyl-6-oxo-1,6-dihydropyridin-3-yl)-1-isopropyl-4,5-dihydropyrrolo[3,4-c]pyrazol-6(1H)-one], the IC50 is 66 nM at His-Brd4(44-477), 57 nM on His-Brd2(60-472), 59 nM on His-Brd3(20-477) and 3600 nM in experiment [1]. For the same compound, the IC (total growth inhibition) was 0.0927 µM with MV-4-11 cells, 0.191 µM in the experiment with THP-1 cells and greater than 10 µM with K-562 cells.

Consider `Cc1cc(N2C(=O)c3c(c(C(F)(F)F)nn3C3CC3)C2c2ccc(Cl)cc2)cn(C)c1=O` (centres unmarked) [Example 45, 4-(4-chlorophenyl)-1-cyclopropyl-5-(1,5-dimethyl-6-oxo-1,6-dihydropyridin-3-yl)-3-(trifluoromethyl)-4,5-dihydropyrrolo[3,4-c]pyrazol-6(1H)-one], for which the IC50 at His-Brd4(44-477) amounted to 85 nM; at His-Brd2(60-472), 60 nM; on His-Brd3(20-477) it was 100 nM; in experiment [1], 4800 nM. The IC (total growth inhibition) in the experiment with MV-4-11 cells is 0.373 µM; in the experiment with THP-1 cells, 0.698 µM; in the experiment on K-562 cells, greater than 10 µM.

As for `COc1ncc(-n2nc3c(c2C(C)C)C(c2ccc(Cl)cc2)N(c2cc(C)c4onc(C)c4c2)C3=O)c(OC)n1` (centres unmarked) [Example 46, 4-(4-chlorophenyl)-2-(2,4-dimethoxypyrimidin-5-yl)-5-(3,7-dimethylbenzo[d]-isoxazol-5-yl)-3-isopropyl-4,5-dihydropyrrolo[3,4-c]pyrazol-6(2H)-one], the IC50 on His-Brd4(44-477) worked out at 87 nM; at His-Brd2(60-472) it was 130 nM; on His-Brd3(20-477), 100 nM; in experiment [1] it was 4700 nM. Also, the figures for the IC (total growth inhibition) in the experiment on MV-4-11 cells, with THP-1 cells and in the experiment with K-562 cells were 0.166 µM, 0.323 µM and greater than 10 µM, respectively.

`COc1ncc(-n2nc3c(c2C(F)(F)F)C(c2ccc(Cl)cc2)N(c2cc(Cl)c(=O)n(C)c2)C3=O)c(OC)n1` (centres unmarked) [Example 47, 5-(5-chloro-1-methyl-6-oxo-1,6-dihydropyridin-3-yl)-4-(4-chlorophenyl)-2-(2,4-dimethoxypyrimidin-5-yl)-3-(trifluoromethyl)-4,5-dihydropyrrolo[3,4-c]pyrazol-6(2H)-one]: the IC50 stood at 270 nM at His-Brd4(44-477), 210 nM on His-Brd2(60-472), 280 nM on His-Brd3(20-477) and 1500 nM in experiment [1]. Further, the IC (total growth inhibition) in the experiment on MV-4-11 cells was 0.158 µM; in the experiment with THP-1 cells, 0.755 µM; with K-562 cells it was greater than 10 µM.

Turning to `COc1ncc(-n2nc3c(c2C)C(c2ccc(Cl)cc2)N(c2cc(C)c(=O)n(C)c2)C3=O)c(OC)n1` (centres unmarked) [Example 56, 4-(4-chlorophenyl)-2-(2,4-dimethoxypyrimidin-5-yl)-5-(1,5-dimethyl-6-oxo-1,6-dihydropyridin-3-yl)-3-methyl-4,5-dihydropyrrolo[3,4-c]pyrazol-6(2H)-one], the half-inhibitory concentration (IC50) on His-Brd4(44-477) is 95 nM; at His-Brd2(60-472), 69 nM; at His-Brd3(20-477) it was 61 nM; in experiment [1] it was 560 nM. Moreover, the figures for the IC (total growth inhibition) in the experiment with MV-4-11 cells, in the experiment with THP-1 cells and in the experiment on K-562 cells were 0.0981 µM, 0.124 µM and greater than 10 µM, respectively.

In the case of `Cc1nn(C)c2c1C(c1ccc(Cl)cc1)N(c1cc(C)c(=O)n(C)c1)C2=O` (centres unmarked) [Example 57, 4-(4-chlorophenyl)-5-(1,5-dimethyl-6-oxo-1,6-dihydropyridin-3-yl)-1,3-dimethyl-4,5-dihydropyrrolo[3,4-c]pyrazol-6(1H)-one], the IC50 was determined as 120 nM at His-Brd4(44-477), 270 nM on His-Brd2(60-472), 130 nM at His-Brd3(20-477) and 6800 nM in experiment [1]. Moreover, the figures for the IC (total growth inhibition) in the experiment on MV-4-11 cells, in the experiment on THP-1 cells and with K-562 cells were 0.109 µM, 0.24 µM and greater than 10 µM, respectively.

With `Cc1nn(C2CC2)c2c1C(c1ccc(Cl)cc1)N(c1cn(C)c(=O)c3[nH]ccc13)C2=O` (centres unmarked) [Example 160, 4-(4-(4-chlorophenyl)-1-cyclopropyl-3-methyl-6-oxopyrrolo[3,4-c]pyrazol-5(1H,4H,6H)-yl)-6-methyl-1H-pyrrolo[2,3-c]pyridin-7(6H)-one], the figures for the IC50 (on His-Brd4(44-477); on His-Brd3(20-477); in experiment [1]) were 30 nM, 52 nM and 4400 nM, respectively. For the same compound, the IC (total growth inhibition) was 0.102 µM in the experiment with MV-4-11 cells, 0.107 µM in the experiment on THP-1 cells and greater than 10 µM in the experiment on K-562 cells.

Turning to `COc1ccccc1-n1nc(C)c2c1C(=O)N(c1cc(C)c3nnc(C)n3c1)C2c1ccc(F)cc1F` (centres unmarked) [Example 177, 4-(2,4-difluorophenyl)-5-(3,8-dimethyl-[1,2,4]triazolo[4,3-a]pyridin-6-yl)-1-(2-methoxyphenyl)-3-methyl-4,5-dihydropyrrolo[3,4-c]pyrazol-6(1H)-one], the figures for the IC50 (at His-Brd4(44-477); at His-Brd3(20-477); in experiment [1]) were 16 nM, 30 nM and 11000 nM, respectively. In addition, the figures for the IC (total growth inhibition) in the experiment on MV-4-11 cells, in the experiment with THP-1 cells and in the experiment with K-562 cells were 0.114 µM, 0.153 µM and greater than 10 µM, respectively.

Consider `Cc1n[nH]c2c1C(c1ccc(Cl)cc1F)N(c1cc(C)c3nnc(C)n3c1)C2=O` (centres unmarked) [Example 183, 4-(4-chloro-2-fluorophenyl)-5-(3,8-dimethyl-[1,2,4]triazolo[4,3-a]pyridin-6-yl)-3-methyl-4,5-dihydropyrrolo[3,4-c]pyrazol-6(2H)-one], for which the IC50 at His-Brd4(44-477) is 82 nM; at His-Brd3(20-477), 75 nM; in experiment [1], greater than 24000 nM. Further, the IC (total growth inhibition) in the experiment with MV-4-11 cells is 0.126 µM; in the experiment on THP-1 cells, 0.314 µM; in the experiment on K-562 cells it was greater than 10 µM.

As to `COc1ccccc1-n1nc(C)c2c1C(=O)N(c1cc(C)c3nnc(C)n3c1)C2c1ccc(Cl)cc1F` (centres unmarked) [Example 187, 4-(4-chloro-2-fluorophenyl)-5-(3,8-dimethyl-[1,2,4]triazolo[4,3-a]pyridin-6-yl)-1-(2-methoxyphenyl)-3-methyl-4,5-dihydropyrrolo[3,4-c]pyrazol-6(1H)-one], the figures for the IC50 (on His-Brd4(44-477); at His-Brd3(20-477); in experiment [1]) were 27 nM, 42 nM and 33000 nM, respectively. Further, the IC (total growth inhibition) is 0.209 µM with MV-4-11 cells, 0.223 µM in the experiment with THP-1 cells and greater than 10 µM in the experiment with K-562 cells.
